Source: patent US9249128B2 (priority 2010, dated 2016)

Columns and labels:
[1] = target: T1, FAAH (Mus musculus, UniProt O08914); experiment: Competitive ABPP of FAAH in mouse brain proteome; type: biochemical; conditions: gel-based competitive ABPP, 10 μM inhibitor
T1 construct: from tissue; host or cells: mouse brain
T1 sequence (O08914 1-579): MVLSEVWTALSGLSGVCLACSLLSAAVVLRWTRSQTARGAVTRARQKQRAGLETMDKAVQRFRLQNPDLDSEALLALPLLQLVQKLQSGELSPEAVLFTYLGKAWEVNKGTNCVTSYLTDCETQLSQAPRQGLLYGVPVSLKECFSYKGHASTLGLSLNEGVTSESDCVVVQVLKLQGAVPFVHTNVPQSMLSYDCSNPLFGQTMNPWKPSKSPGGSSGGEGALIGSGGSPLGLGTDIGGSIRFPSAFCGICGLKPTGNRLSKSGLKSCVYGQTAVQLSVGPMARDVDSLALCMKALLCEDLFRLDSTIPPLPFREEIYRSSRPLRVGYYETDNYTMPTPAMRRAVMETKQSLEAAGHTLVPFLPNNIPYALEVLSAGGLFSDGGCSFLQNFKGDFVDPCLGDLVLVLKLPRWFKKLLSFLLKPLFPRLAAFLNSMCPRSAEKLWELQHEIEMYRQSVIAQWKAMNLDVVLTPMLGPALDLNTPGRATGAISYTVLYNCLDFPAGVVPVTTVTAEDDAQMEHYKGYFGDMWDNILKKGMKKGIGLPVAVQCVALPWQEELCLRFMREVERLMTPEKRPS
Procedure: (§1) For ABPP experiments, cell lysate and tissue proteomes were treated with 1 μM FP-rhodamine for 30 min at room temperature (50 μL total reaction volume) as described previously (Nomura et al., 2010). Reactions were quenched with one volume of standard 4×SDS/PAGE loading buffer (reducing), separated by SDS/PAGE (10% acrylamide), and visualized in-gel with a Hitachi FMBio IIe flatbed fluorescence scanner (MiraiBio). Inhibitors were preincubated prior (30 min or 4 h at 37° C. in vitro or in situ, respectively) to the addition of FP-rhodamine.

[2] = target: T2, KIAA1363 (Homo sapiens, UniProt Q6PIU2); experiment: Gel-based competitive ABPP in PC3 cell proteomes, in vitro treatment; type: biochemical; design: PC3 cancer cells, which have high endogenous KIAA1363 levels; endogenous in cells; host or cells: PC3
T2 sequence (Q6PIU2 1-408): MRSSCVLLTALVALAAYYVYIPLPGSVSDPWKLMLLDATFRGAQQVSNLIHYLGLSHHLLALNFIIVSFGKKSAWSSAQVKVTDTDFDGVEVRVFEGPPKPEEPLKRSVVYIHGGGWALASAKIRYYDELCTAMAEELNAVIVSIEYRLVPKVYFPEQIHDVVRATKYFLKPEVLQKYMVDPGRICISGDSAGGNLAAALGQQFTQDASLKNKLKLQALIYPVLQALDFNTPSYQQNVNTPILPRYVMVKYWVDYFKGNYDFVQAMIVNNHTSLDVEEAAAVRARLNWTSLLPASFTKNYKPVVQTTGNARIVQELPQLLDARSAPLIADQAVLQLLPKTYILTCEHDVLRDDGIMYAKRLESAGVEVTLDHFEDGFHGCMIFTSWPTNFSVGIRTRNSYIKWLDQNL
Procedure: (§2) Inhibitors were dissolved in DMSO and diluted into media or buffer prior to cell or proteome treatment, respectively. For in vitro treatment, final DMSO concentration was 4%. For in situ treatments of cells for ABPP, lipid measurements, migration, cell-survival, and invasion assays, 2×10^6 cells were seeded in 6 cm dishes (˜100% confluency) 24 h prior to inhibitor pre-treatment (in DMSO at 0.1% final concentration) in serum-free media (3 mL) for the designated time before harvesting cells for ABPP or lipid measurements or before the initiation of migration, cell-survival, and invasion assays.
as §1

[3] = test system: LNCaP cells; experiment: Cell survival assay in LNCaP cells; type: cell-based, human; conditions: 1 μM, 48 h in situ treatment; cells express low levels of KIAA1363
Procedure: as §2
Cell migration, cell survival, and invasion studies were performed as previously described (Nomura et al., 2010). Briefly, migration assays were performed in Transwell chambers (Corning) with 8 μm pore-sized membranes coated with 10 μg/mL collagen at 37° C. for LNCaP (24 h), PC3 (4 h) and DU145 cells (24 h), respectively. Cell survival assays were performed using the Cell Proliferation Reagent WST-1 (Roche) Invasion assays were conducted using the BD Matrigel Invasion Chambers per the manufacturer's protocol. Inhibitors were preincubated for the stated duration before seeding cells into migration, cell-survival, or invasion chambers. Prior to seeding the cells in these chambers, cells were serum-starved for 4 h. Inhibitors were also present during the migration, cell-survival, and invasion assays.

[4] = test system: serine hydrolase activities detected in PC3 cells; experiment: Competitive ABPP-MudPIT of PC3 cells treated in situ; type: cell-based, human; conditions: 1 uM in situ treatment, 4 hr; >30 serine hydrolase activities detected in PC3 cells
Procedure: as §2
Competitive ABPP-MudPIT experiments were performed as previously described (Nomura et al., 2010). Briefly, 1 mg of proteome was labeled with 5 μM FP-biotin, followed by solubilization with 1% Triton X-100, denaturation by SDS and heating, avidin precipitation of labeled proteins, and on-bead tryptic digest. Tryptic peptides were then loaded on to a biphasic (strong cation exchange/reverse phase) capillary column and analyzed by two-dimensional liquid chromatography (2D-LC) separation in combination with tandem mass spectrometry using an Agilent 1100 LC system coupled with a ThermoFisher LTQ linear ion trap mass spectrometer. Spectral counts are reported as the average of three samples with the standard error of the mean (SEM).

[5] = test system: PC3 tumor xenograft; experiment: PC3 tumor xenograft growth in SCID mice; type: in vivo, mouse; conditions: 80 mg/kg, oral, daily, versus vehicle
Procedure: Human cancer xenografts were established by transplanting cancer cell lines ectopically into the flank of C.B17 SCID mice (Taconic Farms). Briefly, cells were washed two times with PBS, trypsinized, and harvested in serum-containing medium. Next, the harvested cells were washed two times with serum-free medium and resuspended at a concentration of 2.0×10^4 cells/μL and 100 μL was injected. Growth of the tumors was measured every 3 days with calipers. For chronic JW480 treatment studies, mice were treated with JW480 or vehicle once daily (at approximately the same time everyday) by oral gavage in PEG300 (4 μL/g mouse). The treatments were initiated immediately after ectopic injection of cancer cells.

Structure (SMILES)	Inhibition of FAAH / selectivity versus FAAH [1]	Selectivity for KIAA1363 by gel-based competitive ABPP ([2]; PC3 cells, also DU145 and LNCaP cells)	IC50 ([2]; in vitro treatment)	Survival of LNCaP cells [3]	Off-target activity across serine hydrolases (ABPP-MudPIT) [4]	PC3 tumor growth [5]
COc1ccc(CNC(=O)Oc2cccc3c2OC(C)(C)C3)cc1 [JW148, 2,2-dimethyl-2,3-dihydrobenzofuran-7-yl 4-methoxybenzylcarbamate]	good selectivity	–	–	–	–	–
CC(C)c1ccccc1OC(=O)NCCc1ccc2ccccc2c1 [JW480, 2-isopropylphenyl (2-(naphthalen-2-yl)ethyl)carbamate]	–	excellent selectivity	12 nM	does not affect	no off-target activity	significantly impaired
